Source: publication PMC3773988 (Journal of medicinal chemistry, 2013)
Residues, ends and D or L forms follow the SMILES beside them. *: point of attachment. X1 = O=C(O)CCC(NC(=O)NC(CCCCNC(=O)CCCCCCC(=O)*)C(=O)O)C(=O)O; Acetyl(2-STrt) = O=C(CSC(c1ccccc1)(c1ccccc1)c1ccccc1)*

The compounds below were run against PSMA (Homo sapiens, UniProt Q04609) (assay: NAALADase assay).
Format: biochemical

Sequence of PSMA (Q04609 whole entry): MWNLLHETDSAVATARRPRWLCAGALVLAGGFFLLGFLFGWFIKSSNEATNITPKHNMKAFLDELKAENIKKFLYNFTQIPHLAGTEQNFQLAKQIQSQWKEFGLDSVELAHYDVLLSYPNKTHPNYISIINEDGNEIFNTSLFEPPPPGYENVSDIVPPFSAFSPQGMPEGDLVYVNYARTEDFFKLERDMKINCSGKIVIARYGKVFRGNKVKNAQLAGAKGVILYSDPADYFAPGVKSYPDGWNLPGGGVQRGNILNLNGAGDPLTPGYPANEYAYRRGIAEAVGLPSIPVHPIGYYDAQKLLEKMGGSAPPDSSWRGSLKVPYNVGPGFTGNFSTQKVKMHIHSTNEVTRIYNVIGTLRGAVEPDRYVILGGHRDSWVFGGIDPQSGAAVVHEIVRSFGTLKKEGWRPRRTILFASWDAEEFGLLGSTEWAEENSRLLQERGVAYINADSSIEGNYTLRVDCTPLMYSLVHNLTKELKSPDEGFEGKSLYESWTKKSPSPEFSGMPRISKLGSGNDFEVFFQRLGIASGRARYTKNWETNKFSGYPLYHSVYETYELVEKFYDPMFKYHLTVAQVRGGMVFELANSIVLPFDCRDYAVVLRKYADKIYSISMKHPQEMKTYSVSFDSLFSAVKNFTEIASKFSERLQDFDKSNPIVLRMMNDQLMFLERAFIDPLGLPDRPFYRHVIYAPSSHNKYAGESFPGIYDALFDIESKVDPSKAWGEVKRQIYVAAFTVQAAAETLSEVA

Structure (SMILES)	Ki [nM]
NC(Cc1cn(CCCC[C@H](NC(=O)CCCCCCC(=O)NCCCC[C@H](NC(=O)N[C@@H](CCC(=O)O)C(=O)O)C(=O)O)C(=O)O)nn1)C(=O)O (stereo partly drawn) [Compound L8, (3S,7S,22S)-26-(4-(2-amino-2-carboxyethyl)-1H-1,2,3-triazol-1-yl)-5,13,20-trioxo-4,6,12,21-tetraazahexacosane-1,3,7,22-tetracarboxylic acid]	1.12
O=C(O)CCC(NC(=O)NC(CCCCNC(=O)CCCCCCC(=O)NC(CCCCN(CC(=O)O)Cc1ccccn1)C(=O)O)C(=O)O)C(=O)O (centres unmarked) [Compound L9, 2-[3-(1-Carboxy-5-(7-[1-carboxy-5-(carboxymethyl-pyridin-2-ylmethyl-amino)-pentylcarbamoyl]-heptanoylamino)-pentyl)-ureido]-pentanedioic acid]	12.6
O=C(O)CCC(NC(=O)NC(CCCCNC(=O)CCCCCCC(=O)NC(CCCCN(Cc1ncc[nH]1)Cc1ncc[nH]1)C(=O)O)C(=O)O)C(=O)O (centres unmarked) [Compound L10, 2-{3-[5-(7-(5-[Bis-(1H-imidazol-2-ylmethyl)-amino]-1-carboxy-pentylcarbamoyl)-heptanoylamino)-1-carboxy-pentyl]-ureido}-pentanedioic acid]	16.3
O=C(O)CCC(NC(=O)NC(CCCCNC(=O)CCCCCCC(=O)NCCCCC(NC(=O)CNC(=O)CNC(=O)CSC(c1ccccc1)(c1ccccc1)c1ccccc1)C(=O)O)C(=O)O)C(=O)O (centres unmarked) [Compound L11]	0.03
O=C(O)CCC(NC(=O)NC(CCCCNC(=O)CCCCCCC(=O)NCCCCC(NC(=O)C(Cc1ccccc1)NC(=O)CNC(=O)CNC(=O)CSC(c1ccccc1)(c1ccccc1)c1ccccc1)C(=O)O)C(=O)O)C(=O)O (centres unmarked) [Compound L12, 12-benzyl-4,7,10,13,21,28,36-heptaoxo-1,1,1-triphenyl-2-thia-5,8,11,14,20,29,35,37-octaazatetracontane-15,34,38,40-tetracarboxylic acid] ({Acetyl(2-STrt)}-GGFK(X1)-OH; configuration not given here)	0.13
O=C(O)CCC(NC(=O)NC(CCCCNC(=O)CCCCCCC(=O)NCCCCC(NC(=O)C(Cc1ccccc1)NC(=O)C(Cc1ccccc1)NC(=O)CNC(=O)CNC(=O)CSC(c1ccccc1)(c1ccccc1)c1ccccc1)C(=O)O)C(=O)O)C(=O)O (centres unmarked) [Compound L13, 12,15-dibenzyl-4,7,10,13,16,24,31,39-octaoxo-1,1,1-triphenyl-2-thia-5,8,11,14,17,23,32,38,40-nonaazatritetracontane-18,37,41,43-tetracarboxylic acid] ({Acetyl(2-STrt)}-GGFFK(X1)-OH; configuration not given here)	1.91
O=C(O)CC[C@H](NC(=O)N[C@@H](CCCCNC(=O)CCCCCCC(=O)NCCCC[C@@H](NC(=O)C(CNC(=O)CSC(c1ccccc1)(c1ccccc1)c1ccccc1)NC(=O)CSC(c1ccccc1)(c1ccccc1)c1ccccc1)C(=O)O)C(=O)O)C(=O)O (stereo partly drawn) [Compound L16, (10R, 29S ,33S)-4,8,16,23,31-pentaoxo-1,1,1-triphenyl-7-(2-(tritylthio)acetamido)-2-thia-5,9,15,24,30,32-hexaazapentatriacontane-10,29,33,35-tetracarboxylic acid]	0.048
NNc1ccc(C(=O)NCCCCC(NC(=O)CCCCCCC(=O)NCCCCC(NC(=O)NC(CCC(=O)O)C(=O)O)C(=O)O)C(=O)O)cn1 (centres unmarked) [Compound L19, 2-(3-[1-Carboxy-5-(7-(1-carboxy-5-[(6-hydrazino-pyridine-3-carbonyl)-amino]-pentylcarbamoyl)-heptanoylamino)-pentyl]-ureido)-pentanedioic acid]	1.74
